Test results: PubChem BioAssay AID1259407 (Chemical Carcinogenesis Research Information System (CCRIS), 2018)
Calls of active or inactive are those of the source. No rule for the calls is given here.

Test system: CCRIS mutagenicity, Ames/micronucleus/aberration tests
Test: CCRIS mutagenicity studies

Measured: mutagenic call

O=C(O)CBr
inactive: Test System: AMES SALMONELLA TYPHIMURIUM, Strain/Indicator: RSJ100, Metabolic Activation: NONE, Method: PREINCUBATION inactive; negative | Test System: AMES SALMONELLA TYPHIMURIUM, Strain/Indicator: RSJ100, Metabolic Activation: RAT LIVER S-9, AROCLOR 1254, Method: PREINCUBATION inactive; negative | Test System: AMES SALMONELLA TYPHIMURIUM, Strain/Indicator: TA98, Metabolic Activation: RAT LIVER S-9, PHENOBARBITAL AND BETA-NAPHTHOFLAVONE, Method: PREINCUBATION inactive; negative | Test System: AMES SALMONELLA TYPHIMURIUM, Strain/Indicator: TA100, Metabolic Activation: NONE, Method: FLUCTUATION TEST inactive; negative | Test System: AMES SALMONELLA TYPHIMURIUM, Strain/Indicator: TA100, Metabolic Activation: RAT LIVER S-9, PHENOBARBITAL AND BETA-NAPHTHOFLAVONE, Method: PREINCUBATION inactive; negative | Test System: AMES SALMONELLA TYPHIMURIUM, Strain/Indicator: TA1535, Metabolic Activation: NONE, Method: PREINCUBATION inactive; negative | Test System: AMES SALMONELLA TYPHIMURIUM, Strain/Indicator: TA1535, Metabolic Activation: RAT LIVER S-9, PHENOBARBITAL AND BETA-NAPHTHOFLAVONE, Method: PREINCUBATION inactive; negative | Test System: AMES SALMONELLA TYPHIMURIUM, Strain/Indicator: TA1537, Metabolic Activation: NONE, Method: PREINCUBATION inactive; negative | Test System: AMES SALMONELLA TYPHIMURIUM, Strain/Indicator: TA1537, Metabolic Activation: RAT LIVER S-9, PHENOBARBITAL AND BETA-NAPHTHOFLAVONE, Method: PREINCUBATION inactive; negative | Test System: E.COLI, Strain/Indicator: WP2UVRA, Metabolic Activation: NONE, Method: PREINCUBATION inactive; negative | Test System: E.COLI, Strain/Indicator: WP2UVRA, Metabolic Activation: RAT LIVER S-9, PHENOBARBITAL AND BETA-NAPHTHOFLAVONE, Method: PREINCUBATION inactive; negative
active: End Point: IN VITRO CHROMOSOMAL ABERRATIONS, Test System: CHL CELLS, Metabolic Activation: NONE active; positive (structural changes) | End Point: IN VITRO CHROMOSOMAL ABERRATIONS, Test System: CHL CELLS, Metabolic Activation: RAT, LIVER, S-9, SODIUM PHENOBARBITAL AND 5,6-BENZOFLAVONE active; positive (structural changes) | Test System: AMES SALMONELLA TYPHIMURIUM, Strain/Indicator: TA98, Metabolic Activation: RAT LIVER S-9, AROCLOR 1254, Method: PREINCUBATION active; positive | Test System: AMES SALMONELLA TYPHIMURIUM, Strain/Indicator: TA100, Metabolic Activation: NONE, Method: PREINCUBATION active; positive | Test System: AMES SALMONELLA TYPHIMURIUM, Strain/Indicator: TA100, Metabolic Activation: RAT LIVER S-9, AROCLOR 1254, Method: PREINCUBATION active; positive | Test System: AMES SALMONELLA TYPHIMURIUM, Strain/Indicator: TA100, Metabolic Activation: RAT, LIVER, S-9, AROCLOR 1254, Method: FLUCTUATION TEST active; positive
